Laboratory results taken from ChEMBL document CHEMBL3751812, “Novel skeleton compound Allomyrinanoid A and two purine alkaloids from the adult of Allomyrina dichotoma L” (2016).

Experiments:
Assay type in all cases: functional
Details in all cases: read-out: DIZ
[1] = system: Bacillus subtilis; assay: Antibacterial activity against Bacillus subtilis assessed as growth inhibition at 10 mg/ml by drug sensitive assay
[2] = system: Staphylococcus aureus; assay: Antibacterial activity against Staphylococcus aureus assessed as growth inhibition at 1 mg/ml by drug sensitive assay
[3] = system: Staphylococcus aureus; assay: Antibacterial activity against Staphylococcus aureus assessed as growth inhibition at 10 mg/ml by drug sensitive assay
[4] = system: Bacillus subtilis; assay: Antibacterial activity against Bacillus subtilis assessed as growth inhibition at 1 mg/ml by drug sensitive assay
[5] = system: Escherichia coli; assay: Antibacterial activity against Escherichia coli assessed as growth inhibition at 10 mg/ml by drug sensitive assay

Work on `CNC(=O)[C@H]1CCC[C@@H](C(=O)O)[C@@H](C)[C@H](C)[C@H](C)[C@@H]1C` yielded a zone of inhibition at 10000 µg/mL [1] of 4.5 mm.

Compound `CC1(C)S[C@@H]2[C@H](NC(=O)Cc3ccccc3)C(=O)N2[C@H]1C(=O)O` [PENICILLIN G] has a zone of inhibition at 1000 µg/mL [2] of 9 mm, a zone of inhibition at 10000 µg/mL [1] of 18 mm and a zone of inhibition at 10000 µg/mL [3] of 17 mm. The zone of inhibition at 1000 µg/mL [4] was 10 mm.

`Nc1ncnc2c1ncn2/C=N\O` (stereo in doubt; 2) was tested, and the zone of inhibition at 10000 µg/mL [5] was 5.5 mm.
